Test results published in patent US8178506B2, “Oligomeric compounds and compositions for use in modulation of small non-coding RNAs” (Regulus Therapeutics Inc., priority 2003, dated 2012).
In the oligonucleotide strings, read from the 5' end, every base follows the letter of its sugar. An asterisk marks phosphorothioate; unmarked linkages are phosphodiester. Other units and linkages are bracketed, terminal groups are in braces. A string of capitals states the bases alone. e = 2'-O-(2-methoxyethyl) (MOE); [5mC] = 5-methylcytosine; d = 2'-deoxy (DNA)

Tests used:
[1] = test system: T47D cells; experiment: Caspase-3 activity assay (apoptosis) in T47D cells; settings: T47D cells, 200 nM, 48 hours, relative to untreated control
[2] = test system: differentiated adipocytes; experiment: Hallmark genes and triglycerides in differentiated adipocytes; type: cell-based, human; settings: 250 nM, transfected day nine, measured 12th day post differentiation
Excerpt: The effect of the oligomeric compounds of the present invention targeting miRNAs on the expression of markers of cellular differentiation was examined in differentiated adipocytes.
As previously described, the HSL, aP2, Glut4, and PPARγ genes play important rolls in the uptake of glucose and the metabolism and utilization of fats. Also as previously described, an increase in triglyceride content is another well-established marker for adipocyte differentiation. Human white preadipocytes (Zen-Bio Inc., Research Triangle Park, N.C.) were grown in preadipocyte media (ZenBio Inc.). After the cells reached confluence (approximately three days), they were exposed to differentiation media (Zen-Bio, Inc.) containing a PPAR-γ agonist, IBMX, dexamethasone, and insulin for three days. Cells were then fed Adipocyte Medium (Zen-Bio, Inc.), which was replaced at 2 to 3 day intervals. One day before transfection, 96-well plates were seeded with 3000 cells/well. Cells were then transfected on day nine post-differentiation, according to standard published procedures with 250 nM oligonucleotide in LIPOFECTIN™ (Invitrogen Corporation, Carlsbad, Calif.) (Monia et al., J. Biol. Chem. 1993 268(19):14514-22). Oligomeric compounds were tested in triplicate on each 96-well plate, and the effect of TNF-α, known to inhibit adipocyte differentiation, was also measured in triplicate. Oligomeric compound treatments and transfectant-only negative controls may be measured up to six times per plate. On day twelve post-differentiation, cells were washed and lysed at room temperature, and the expression of the four hallmark genes, HSL, aP2, Glut4, and PPARγ, as well as triglyceride (TG) accumulation were measured in adipocytes transfected with the uniform 2′-MOE phosphorothioate (PS) previously described in Example 13 as well as the chimeric gapmer oligomeric compounds targeting the mir-143 miRNA and the mir-143 pri-miRNA described in Example 16. On day twelve post-differentiation, cells were lysed in a guanadinium-containing buffer and total RNA was harvested. The amount of total RNA in each sample was determined using a Ribogreen Assay (Molecular Probes, Eugene, Oreg.). Real-time PCR was performed on the total RNA using primer/probe sets for the adipocyte differentiation hallmark genes Glut4, HSL, aP2, and PPARγ. Triglyceride levels as well as mRNA levels for each of the four adipocyte differentiation hallmark genes are expressed relative to control levels (control=treatment with ISIS-29848 (SEQ ID NO: 737)).

[3] = test system: ob/ob mice; experiment: ob/ob mice: plasma parameters, food consumption, marker gene mRNA; type: in vivo, mouse; settings: ob/ob mice, 25 mg/kg s.c. two times per week, 6 weeks
Method in brief: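 Male C57Bl/6J ob/ob mice received oligomeric compound or control at 25 mg/kg s.c. twice weekly, for 4 weeks on a 10-15% fat diet or for 6 weeks on high-fat diet. Plasma glucose and insulin were measured at 0, 2 and 4 weeks; i.p. glucose/insulin tolerance tests were run; serum lipids, liver triglycerides and histology were assessed, with liver, BAT and WAT mRNA quantified by real-time PCR.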

[4] = test system: mir-143 binding sites; experiment: pGL3-mir-143 sensor luciferase assay in HeLa cells; type: cell-based, human; settings: Table 41, pGL3-mir-143 sensor, 24 hours

## 328403 (antisense eA*eG*eG*e[5mC]*e[5mC]*dT*dA*dT*dT*d[5mC]*d[5mC]*dT*dG*dT*dA*eG*e[5mC]*eA*eA*eA) [compound 328403]
[1]
  Fold Increase over UTC (caspase activity): 1.0

## CTAGTGGTCCTAAACATTTCAC (chemistry not given here) [ISIS 327878, uniform 2′-MOE PS; targets mir-203]
[2]
  expression of hallmark marker genes in differentiated adipocytes: decreased expression of the aP2, HSL, Glut4 and PPARγ marker genes
[3]
  plasma glucose levels (fed): reduced beginning at approximately four weeks after the start of treatment

## ds-mir-143: double-stranded RNA of ISIS 342199 hybridized to its perfect complement ISIS 342200 (sense UGAGAUGAAGCACUGUAGCUCA; antisense UGAGCUACAGUGCUUCAUCUCA; RNA, backbone not given here)
[4]; 11 nM
  luciferase expression: 15.0 percent untreated control
[4]; 33 nM
  luciferase expression: 15.0 percent untreated control
[4]; 100 nM
  luciferase expression: 11.1 percent untreated control
